Assay results from patent US9833497B2, “Human originated EGF domain proteins and use of the same” (CHENGDU SOURCEBIO LIMITED-LIABILITY COMPANY, priority 2013, dated 2017).

How the values were obtained:
Type in all cases: cell-based
[1] = test system: E. coli BL21; test: MIC against Gram-negative bacteria: E. coli BL21; conditions: for MIC against E. coli BL21: 96-well plate, 37° C., 10 h
Outline: (§1)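 Broth microdilution, LB medium, final inoculum 5×10^5 CFU/mL from McFarland 0.5 cultures. Recombinant human EGF domain proteins tested in two-fold steps, n=3. MIC: lowest concentration, no growth.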

[2] = test system: Pseudomonas aeruginosa; test: MIC against Gram-negative bacteria: Pseudomonas aeruginosa; conditions: for MIC against P. aeruginosa: 96-well plate, 37° C., 10 h
Outline: as §1

[3] = test system: Aeromonas hydrophila; test: MIC against Gram-negative bacteria: Aeromonas hydrophila; conditions: for MIC against A. hydrophila: 96-well plate, 37° C., 10 h
Outline: as §1

[4] = test system: Enterobacter cloacae; test: MIC against Gram-negative bacteria: Enterobacter cloacae; conditions: for MIC against E. cloacae: 96-well plate, 37° C., 10 h
Outline: as §1

[5] = test system: Proteus mirabilis; test: MIC against Gram-negative bacteria: Proteus mirabilis; conditions: for MIC against P. mirabilis: 96-well plate, 37° C., 10 h
Outline: as §1

[6] = test system: Citrobacter diversus; test: MIC against Gram-negative bacteria: Citrobacter diversus; conditions: for MIC against C. diversus: 96-well plate, 37° C., 10 h
Outline: as §1

[7] = test system: Proteus vulgaris; test: MIC against Gram-negative bacteria: Proteus vulgaris; conditions: for MIC against P. vulgaris: 96-well plate, 37° C., 10 h
Outline: as §1

[8] = test system: E. coli DH5α; test: Antibacterial activity: MIC and growth curve against E. coli DH5α in 96-well plate; conditions: minimal inhibitory concentration against E. coli DH5α; 96-well plate, 5×10^5 CFU/mL, 37° C., judged after 8 h
Outline: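 MIC taken as lowest protein level with no bacterial growth, tracked by A600 every 30 min during 37 °C, 175 rpm culture. Two-fold protein series 50-12.5 μg/mL final, triplicate wells, against 5×10^5 CFU/mL of LB-washed mid-log cells.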

[9] = test system: Klebsiella pneumonia; test: MIC against Gram-negative bacteria: Klebsiella pneumonia; conditions: for MIC against K. pneumonia: 96-well plate, 37° C., 10 h
Outline: as §1

[10] = test system: Moraxella catarrhalis; test: MIC against Gram-negative bacteria: Moraxella catarrhalis; conditions: for MIC against M. catarrhalis: 96-well plate, 37° C., 10 h
Outline: as §1

[11] = test system: Serratia marcescens; test: MIC against Gram-negative bacteria: Serratia marcescens; conditions: for MIC against S. marcescens: 96-well plate, 37° C., 10 h
Outline: as §1

[12] = Pseudomonas aeruginosa, 5×10^5 CFU/mL
[13] = Aeromonas hydrophila, 5×10^5 CFU/mL
[14] = Enterobacter cloacae, 5×10^5 CFU/mL
[15] = Proteus mirabilis, 5×10^5 CFU/mL
[16] = Citrobacter diversus, 5×10^5 CFU/mL
[17] = Proteus vulgaris, 5×10^5 CFU/mL
[18] = Klebsiella pneumonia, 5×10^5 CFU/mL
[19] = Moraxella catarrhalis, 5×10^5 CFU/mL
[20] = Serratia marcescens, 5×10^5 CFU/mL
[21] = 10 h cultivation at 37° C., 5×10^5 CFU/mL, two-fold serial dilution

PRT881 (AEGPCGERPCENGGICFLLDGHPTCDCSTTGYGGKLCS; listed as Homo sapiens)
MIC (μg/mL) E. coli BL21 ([1]; E. coli BL21, 10 h cultivation at 37° C., 5×10^5 CFU/mL): 12.5 µg/mL | MIC (μg/mL) P. aeruginosa ([2]; P. aeruginosa, 10 h cultivation at 37° C., 5×10^5 CFU/mL): 12.5 µg/mL | MIC (μg/mL) A. hydrophila ([3]; A. hydrophila, 10 h cultivation at 37° C., 5×10^5 CFU/mL): 25 µg/mL | MIC (μg/mL) E. cloacae ([4]; E. cloacae, 10 h cultivation at 37° C., 5×10^5 CFU/mL): 12.5 µg/mL | MIC (μg/mL) P. mirabilis ([5]; P. mirabilis, 10 h cultivation at 37° C., 5×10^5 CFU/mL): 12.5 µg/mL | MIC (μg/mL) C. diversus ([6]; C. diversus, 10 h cultivation at 37° C., 5×10^5 CFU/mL): 12.5 µg/mL | MIC (μg/mL) P. vulgaris ([7]; P. vulgaris, 10 h cultivation at 37° C., 5×10^5 CFU/mL): 25 µg/mL | MIC [8]: 12.5 µg/mL | MIC (μg/mL) K. pneumonia ([9]; K. pneumonia, 10 h cultivation at 37° C., 5×10^5 CFU/mL): 25 µg/mL | MIC (μg/mL) M. catarrhalis ([10]; M. catarrhalis, 10 h cultivation at 37° C., 5×10^5 CFU/mL): 25 µg/mL | MIC (μg/mL) S. marcescens ([11]; S. marcescens, 10 h cultivation at 37° C., 5×10^5 CFU/mL): 12.5 µg/mL

PRT1229 (DINECETGLAKCKYKAYCRNKVGGYICSCLVKYTLFNFLAGIIDYDHPDCY; listed as Homo sapiens)
MIC against E. coli BL21 ([1]; E. coli BL21, 5×10^5 CFU/mL): 12.5 µg/mL | MIC against P. aeruginosa [2, 12]: 12.5 µg/mL | MIC against A. hydrophila [3, 13]: 12.5 µg/mL | MIC against E. cloacae [4, 14]: 25 µg/mL | MIC against P. mirabilis [5, 15]: 12.5 µg/mL | MIC against C. diversus [6, 16]: 12.5 µg/mL | MIC against P. vulgaris [7, 17]: 12.5 µg/mL | MIC [8]: 25 µg/mL | MIC against K. pneumonia [9, 18]: 12.5 µg/mL | MIC against M. catarrhalis [10, 19]: 12.5 µg/mL | MIC against S. marcescens [11, 20]: 12.5 µg/mL

PRT1334 (PINPCLRKICHPHAHCTYLGPNRHSCTCQEGYRGDGQVCL; listed as Homo sapiens)
MIC against E. coli BL21 ([1]; E. coli BL21, 5×10^5 CFU/mL): 12.5 µg/mL | MIC against P. aeruginosa [2, 12]: 50 µg/mL | MIC against A. hydrophila [3, 13]: 12.5 µg/mL | MIC against E. cloacae [4, 14]: 50 µg/mL | MIC against P. mirabilis [5, 15]: 100 µg/mL | MIC against C. diversus [6, 16]: 50 µg/mL | MIC against P. vulgaris [7, 17]: 25 µg/mL | MIC [8]: 12.5 µg/mL | MIC against K. pneumonia [9, 18]: 12.5 µg/mL | MIC against M. catarrhalis [10, 19]: 25 µg/mL | MIC against S. marcescens [11, 20]: 25 µg/mL

PRT981 (DINECRSGACHAAHTRDCLQDPGGGFRCLCHAGFSGPRCQ; listed as Homo sapiens)
MIC ([1]; E. coli BL21, 10 h cultivation at 37° C.): 12.5 µg/mL | MIC ([2]; P. aeruginosa, 10 h cultivation at 37° C.): 50 µg/mL | MIC ([3]; A. hydrophila, 10 h cultivation at 37° C.): 12.5 µg/mL | MIC ([4]; E. cloacae, 10 h cultivation at 37° C.): 50 µg/mL | MIC ([5]; P. mirabilis, 10 h cultivation at 37° C.): 12.5 µg/mL | MIC ([6]; C. diversus, 10 h cultivation at 37° C.): 25 µg/mL | MIC ([7]; P. vulgaris, 10 h cultivation at 37° C.): 50 µg/mL | MIC [8]: 25 µg/mL | MIC ([9]; K. pneumonia, 10 h cultivation at 37° C.): 12.5 µg/mL | MIC ([10]; M. catarrhalis, 10 h cultivation at 37° C.): 25 µg/mL | MIC ([11]; S. marcescens, 10 h cultivation at 37° C.): 12.5 µg/mL

PRT1167 (NINDCESNPCRNGGTCIDGVNSYKCICSDGWEGAYCE; listed as Homo sapiens)
MIC E. coli BL21 [1, 21]: 25 µg/mL | MIC P. aeruginosa [2, 21]: 12.5 µg/mL | MIC A. hydrophila [3, 21]: 25 µg/mL | MIC E. cloacae [4, 21]: 50 µg/mL | MIC P. mirabilis [5, 21]: 50 µg/mL | MIC C. diversus [6, 21]: 12.5 µg/mL | MIC P. vulgaris [7, 21]: 25 µg/mL | MIC [8]: 50 µg/mL | MIC K. pneumonia [9, 21]: 25 µg/mL | MIC M. catarrhalis [10, 21]: 25 µg/mL | MIC S. marcescens [11, 21]: 12.5 µg/mL

PRT456 (DIDECADSEACGEARCKNLPGSYSCLCDEGFAYSSQEKACR; listed as Homo sapiens)
MIC against E. coli BL21 ([1]; 5×10^5 CFU/mL): 12.5 µg/mL | MIC against P. aeruginosa ([2]; 5×10^5 CFU/mL): 50 µg/mL | MIC against A. hydrophila ([3]; 5×10^5 CFU/mL): 12.5 µg/mL | MIC against E. cloacae ([4]; 5×10^5 CFU/mL): 12.5 µg/mL | MIC against P. mirabilis ([5]; 5×10^5 CFU/mL): 50 µg/mL | MIC against C. diversus ([6]; 5×10^5 CFU/mL): 50 µg/mL | MIC against P. vulgaris ([7]; 5×10^5 CFU/mL): 12.5 µg/mL | MIC [8]: 25 µg/mL | MIC against K. pneumonia ([9]; 5×10^5 CFU/mL): 12.5 µg/mL | MIC against M. catarrhalis ([10]; 5×10^5 CFU/mL): 12.5 µg/mL | MIC against S. marcescens ([11]; 5×10^5 CFU/mL): 25 µg/mL
